Data from patent publication US20240424053A1, “METHODS AND COMPOSITIONS FOR PROVIDING MYOCARDIAL PROTECTION AND TREATING MYOCARDIAL STRESS AND FIBROSIS” (Tufts Medical Center, Inc., priority 2021, published 2024).
Where a SMILES comes first, the peptide text is derived from it. The star is where a group is joined. Palmitoyl = CCCCCCCCCCCCCCCC(=O)*

Legend:
[1] = target: T1, PAR1 (Mus musculus, UniProt P30558); assay: myocardial ischemia (30 min left coronary artery occlusion) / 2 h reperfusion in mice; assay type: in vivo; settings: 10 mg/kg sc before ischemia
T1 construct: endogenous in cells; host or cells: male C57BL/6N mice, in vivo
T1 sequence (P30558 22-430): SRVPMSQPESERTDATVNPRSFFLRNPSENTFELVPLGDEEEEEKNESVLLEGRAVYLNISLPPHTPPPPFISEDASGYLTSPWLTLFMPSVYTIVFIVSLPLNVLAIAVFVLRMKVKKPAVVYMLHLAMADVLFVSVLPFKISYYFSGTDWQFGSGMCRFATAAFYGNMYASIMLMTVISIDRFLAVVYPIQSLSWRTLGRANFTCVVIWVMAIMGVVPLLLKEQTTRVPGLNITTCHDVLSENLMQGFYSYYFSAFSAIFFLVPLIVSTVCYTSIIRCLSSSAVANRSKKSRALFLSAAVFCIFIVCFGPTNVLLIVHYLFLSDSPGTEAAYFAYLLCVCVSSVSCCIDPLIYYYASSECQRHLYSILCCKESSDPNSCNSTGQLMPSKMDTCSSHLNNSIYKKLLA
Method: FIGS. 1A-E show protection against cardiac myocardial injury by PZ-128 in mice. […] Images were quantified using ImageJ and adjusted by weight of each cardiac slice. Data are shown as mean±SD and analyzed by two-tailed Student's t-test: **p<0.01, ***p<0.001.
A role of PAR1 in directly mediating cardiac ischemic myonecrosis—independent of established platelet-dependent effects (Strande et al., Basic Res. Cardiol. 102(4):350-358, 2007)—was also examined. […] Mice (n=7) were treated with vehicle or 10 mg/kg PZ-128 (subcutaneous; sc) just prior to ischemic injury. As shown in FIG. 1a-d, PZ-128-treated mice had 51-62% reductions in mean cardiac Infarct Area (p<0.01), Area At Risk (p<0.01), and Total Ischemic Area (p<0.0001) compared to vehicle-treated mice. […] Using echocardiography after 3 days of reperfusion, there was a significant increase in left ventricular mass (p<0.05) in vehicle compared to PZ-128 treated cohorts, with no difference in left ventricular mass between baseline and 3 days in the PZ-128 cohort (FIG. 2). […] Previous pharmacokinetic studies of subcutaneously administered PZ-128 in mice were the basis of this 10 mg/kg dose in mice (Cisowski et al., Am. J. Pathol. 179(1):513-523, 2011), selected to match the 0.3-0.5 mg/kg doses administered in humans.
Eight-week male C57BL/6N mice were vehicle (20% DMSO) or 10 mg/kg PZ-128 1 h before cardiac surgery (n=7 per group). The left coronary artery was occluded for 30 min with a ligature left in place during reperfusion. Blood flow was restored for 2 h, then the left coronary artery was reoccluded, and 5% Evans blue dye was injected via the aorta. Hearts were frozen and sectioned in OTC, before incubation in TTC for 10 min at 37° C. (a) Sections were digitally scanned and the area of white (b—Infarct area=1), red (c—Area at Risk=AAR), white+red (d—total Ischemic area), and blue (e—Reperfusion area=R) quantified using ImageJ and adjusted by weight of each cardiac slice. Data are shown as mean±SD and analyzed by two-tailed Student's t-test: **p<0.01, ***p<0.001.

[2] = target: T2, PAR1 (Homo sapiens, UniProt P25116); assay: NT-proBNP plasma levels in heart failure subset of TRIP-PCI; assay type: in vivo; settings: 24 hours after single dose (0.3 or 0.5 mg/kg combined), HF patients n=5, P=0.02
T2 construct: delivered intravenously in 100 patients with coronary artery disease (CAD) and acute coronary syndrome (ACS) undergoing cardiac catheterization; endogenous in cells; host or cells: patients of the TRIP-PCI trial (platelets ex vivo; whole body in vivo)
T2 sequence (P25116 22-425): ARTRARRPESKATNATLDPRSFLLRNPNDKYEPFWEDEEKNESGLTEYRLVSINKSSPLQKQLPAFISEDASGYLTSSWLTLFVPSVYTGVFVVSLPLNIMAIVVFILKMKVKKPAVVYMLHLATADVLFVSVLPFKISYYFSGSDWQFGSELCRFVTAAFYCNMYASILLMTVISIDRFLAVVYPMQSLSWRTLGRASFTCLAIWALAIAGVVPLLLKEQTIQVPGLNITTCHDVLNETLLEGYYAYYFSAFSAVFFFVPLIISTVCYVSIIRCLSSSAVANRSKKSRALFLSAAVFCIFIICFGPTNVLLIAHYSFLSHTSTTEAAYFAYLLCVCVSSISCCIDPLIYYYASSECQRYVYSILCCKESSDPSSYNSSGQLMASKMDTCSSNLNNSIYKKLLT
Method: Data was analyzed by 2-sided paired T-tests. Normal levels of NT-proBNP ≤125 pg/mL.
The TRIP-PCI (Thrombin Receptor Inhibitory Pepducin in PCI) Phase 2 trial (Kuliopulos et al., Arterioscler. Thromb. Vasc. Biol. 40(12):2990-3003, 2020), which enrolled a subset of patients with HF, was conducted to assess the safety, target engagement, and efficacy of PZ-128 in patients undergoing cardiac catheterization with intent to perform percutaneous coronary intervention (PCI). As explained above, in this randomized, double-blind, placebo-controlled, phase 2 trial, 100 patients were randomly assigned (2:1) to receive PZ-128 (0.3 mg/kg or 0.5 mg/kg), or placebo in a two-hour infusion initiated just prior to the start of cardiac catheterization. […]
In the BNP multinational study of 1568 patients presenting with dyspnea to the emergency department, BNP and NT-proBNP were the single most accurate predictors of diagnosis and severity of ADHF, and are used as a well-validated surrogate clinical efficacy endpoint in human trials (Ibrahim et al., Circ. Res. 123(5):614-629, 2018; Ibrahim et al., Circ. Heart Fail. 9(9), 2016). NT-proBNP levels were measured at baseline and 24 hours after the PZ-128 or placebo infusion was initiated and the cardiac catheterization procedure completed in the subset of patients with heart failure. […]

CCCCCCCCCCCCCCCC(=O)N[C@@H](CCCCN)C(=O)N[C@@H](CCCCN)C(=O)N[C@@H](CO)C(=O)N[C@@H](CCCNC(=N)N)C(=O)N[C@@H](C)C(=O)N[C@@H](CC(C)C)C(=O)N[C@@H](Cc1ccccc1)C(N)=O [PZ-128, Palmitate-KKSRALF-NH2] (Palmitoyl-KKSRALF-NH2)
reduction in mean Total Ischemic Area vs vehicle ([1]; n=7, p<0.0001): 51-62%
increase in total area of cardiac muscle able to be reperfused vs vehicle ([1]; n=7, p<0.001): 50%
reduction in mean Area At Risk vs vehicle ([1]; n=7, p<0.01): 51-62%
reduction in mean cardiac Infarct Area vs vehicle ([1]; n=7, p<0.01): 51-62%
change in NT-proBNP levels [2]: significant mean drop
